Test results: the NIST ThermoML archive (doi:10.1016/j.jct.2015.09.020)
± gives the expanded uncertainty stated by the source.

Experiments:
[1] = 278.15 K, 101.3 kPa, Liquid
[2] = mn = molality of the nth substance listed, in mol/kg; conditions: 278.15 K, 101.3 kPa, Liquid, m2 = 0; for speed of sound: Frequency=2 MHz, Linear variable-path acoustic interferometer; for mass density: Pycnometric method

speed of sound ([1]; Frequency=2 MHz, Linear variable-path acoustic interferometer) | mass density ([1]; Pycnometric method) | speed of sound [2] | mass density [2] | Compound
1426.2 ± 1.7 m/s | 999.96 ± 0.28 kg/m3 |  |  | O [water]
 |  | 1426.2 ± 1.7 m/s | 999.96 ± 0.29 kg/m3 | O [water] + N[C@@H](CCC(=O)[O-])C(=O)O.[Na+]
 |  | 1426.2 ± 1.7 m/s | 999.96 ± 0.28 kg/m3 | O [water] + Cl.NCC(=O)O
 |  | 1426.2 ± 1.7 m/s | 999.96 ± 0.28 kg/m3 | O [water] + NCCCC(=O)O
